Experiments:
[1] = system: human cancer cell lines; test: Antiproliferative activity against human cancer cell lines; assay type: cell-based
[2] = system: C6 glioblastoma cells; details: murine C6 glioblastoma cells; parent 5-methylindirubin; cited from earlier work

| SMILES | antiproliferative activity as compared to the parent molecule, indirubin [1] | effectiveness for inhibition of cells versus parent compound [2] |
| --- | --- | --- |
| O=C1Nc2ccccc2C1=C1Nc2ncccc2C1=O [E843, 7'-Azaindirubin] | markedly augmented | – |
| Cc1cc2c(cc1O)NC(=O)C2=C1Nc2ccccc2C1=O | – | as effective as the parent compound |

Source: patent EP2379549B1, “7-AZAINDIRUBINS, 7'-AZAINDIRUBINS, 7-7'-DIAZAINDIRUBIN AND THE CORRESPONDING 3'-OXIME ETHER DERIVATES: PRODUCTION THEREOF, THEIR PRODUCTION AND USE AS A MEDICAMENT” (Eisenbrand, Gerhard, priority 2008, dated 2010)
